Consider 1 compound from US20090068286A1, “METHOD OF TREATING CANCER BY ADMINISTRATION OF 5-SUBSTITUTED NUCLEOSIDES” (RESprotect, GmbH, priority 2007, published 2009).

Entries after “also recorded” stand apart in the source; their conditions may differ.

The subject of test [1] is Yoshida AH13r hepatoma cells. The test can be described thus: Growth of s.c. Yoshida AH13r hepatoma tumors in SD-rats. Type of test: in vivo, rat. Here is the method: Ten SD-rats per treatment group were given a single s.c. injection of ascites Yoshida AH13r hepatoma cells. Five to 7 days after tumor application, the growth of the resulting tumors (at the injection site) was suppressed by i.p. treatment of the animals with cisplatin, doxorubicin or cyclophosphamide, or by additional oral treatment with 15 mg/kg BVDU (15 times within 3 weeks).

In the next test the test system is AH13r tumor cells. The test can be described thus: Hoechst 33258/propidium iodide (Hopi) double coloration for apoptosis. Type of test: cell-based, rat. The following applies: co-treatment of cytostatic with BVDU. The source says: The indication that the reduction in cell number is based on apoptosis, was detected by means of Hoechst 33258/propidium iodide (Hopi) double coloration.

Test [2] deals with advanced pancreatic adenocarcinoma. The test can be described thus: Pilot study GEM + CIS + BVDU in patients. Type of test: in vivo, human. Here is the method:
Pilot study: 13 Patients (mean age 61, 69% males, 4 stage III, 9 stage IV) with advanced pancreatic adenocarcinoma were treated with i.v. 1.000 mg/m^2 GEM over 30 min on days 1 and 15 of a 28-day schedule. CIS was administered at 50 mg/m^2. BVDU treatment took place on the same day and for four days after chemotherapy in the recovery phase (each four 125 mg tablets per day, resulting in a total dose of 6.000 mg per treatment cycle). As control, data were used of patients of a preceding study which were treated with GEM and CIS, but not with BVDU. With the intention to obtain a control group with a similar proportion of stage IV and stage III diseases as the 13 patients of the pilot study, […] (6 stage III, 15 stage IV) of 96 patients were selected from the Heinemann study by random generator.
Evaluation: Efficacy was measured by overall survival, objective tumor response rate (ORR, according to WHO criteria in the pilot study and RECIST criteria in the dose finding study) and time to progression (TTP) from the first administration onwards. Serum CA19-9 levels were measured at the start and end of each treatment cycle. Safety was evaluated according to NCI-CTC scale.
Evaluation of Progression: Patients were evaluated every five weeks.
Statistical Methods: Survival curves were generated using the Kaplan-Meier method; survival distributions were compared by the log-rank test (Cox-Mantel), and median survival by the Box and Whisker plot.

The test system of the next test is STAT3. Description: Western Blot analysis of survival pathways: STAT3. To be noted: after DOX treatment, recovery phase: only BVDU given, no cytostatic. The format is cell-based. Here is the method:
(§1) Different “survival pathways” were tested by means of Western Blot analysis. The analyses were implemented according to standard methods, as is described in Sambrook et al., 2001, Molecular Cloning (3rd ed.). Antibody dilutions: P-STAT3 (cell signaling) 1: 500, JUN-D (Santa Cruz, Calif.) 1: 1,000.
(§2) The densitometrically determined content of oncogene proteins JUN-D and STAT3 was reduced by a quarter or two thirds after DOX treatment in the recovery phase (r=recovery phase). In the “recovery” only BVDU is given, no cytostatic.

Another test concerns DT-diaphorase (DT-D). Description: DT-diaphorase activity in cell extracts (dicoumarol-inhibitable NAD(P)H: dichlorophenol indophenol reductase). Type of test: cell-based. Here is the method: The measurement of the DT-diaphorase (DT-D) was effected as a dicoumarol-inhibitable NAD(P)H: dichlorophenol indophenol reductase, as described in Hodnick et al., Anal. Biochem 252(1), 1997, 165-168 (incorporated by reference herein in its entirety). Extracts were tested of a similar number of cells which had been treated with DOX±BVDU for DT-D activity.

The test system of test [3] is uridine phosphorylase (UPase). The test can be described thus: UPase expression in human pancreas carcinoma cell lines. The format is cell-based. The source says:
BVDU downregulates uridine phosphorylase (UPase) expression in BxPC-3 and AsPC-1 human pancreas carcinoma cell lines. […] In squamous cell carcinoma, high staining of UPase in primary tumors was frequently associated with the presence of lymph node metastases and lower overall survival.

The test system of a further test is AH13r sarcoma cells. The test can be described thus: Number of AH13r cells under cytostatic ± BVDU and in the recovery phase. The format is cell-based, rat. The source says:
AH13r cells were subjected to increasing doses of the cytostatic mitomycin C (MMC). […] This inhibitory effect was maintained even after discontinuation of the cytostatic in the next cycle, in the so-called recovery phase. The cells without MMC and BVDU continued to grow without inhibition.

Another test has as its system JUN-D. Description: Western Blot analysis of survival pathways: JUN-D. The format is cell-based. The procedure: as §1, §2
In general terms: Immunoblotting shows a protein as a band on a membrane.

The mark [4] stands for this setting: 13 patients, BVDU co-treatment with GEM + CIS.
Where [5] appears, read: BVDU co-treatment with GEM + CIS.

`O=c1[nH]c(=O)n([C@H]2C[C@H](O)[C@@H](CO)O2)cc1/C=C/Br` [BVDU, (E)-5-(2-bromovinyl)-2′-deoxyuridine]: the “Effect on tumor size” value in test [1] (BVDU 50 mg/kg given only on the same day as cisplatin, no recovery phase) is reported as “only weak”; in test [1] (BVDU 15 times alone in the recovery phase, one time together with cyclophosphamide), “strong effect”; in test [1] (BVDU alone or in combination with DOX, recovery phase 6× one day), “strong effect”; in test [1] (BVDU with CIS, recovery phase 4×3 or 2 days), “very strong”. In addition, the “Influence on the growth of rat tumors” value in test [1] (BVDU given alone, oral) is given as “no influence”. For the same compound, the “Apoptosis (HOPI double coloration)” value with AH13r tumor cells is “promotes apoptosis”. For the same compound, in test [2] (setting [4]), the Median survival is on record as 447 days. Also, the “Median time to progression (TTP)” value in test [2] (setting [4]) turned out to be 280 days. Besides, in test [2] (13 patients, WHO criteria, BVDU co-treatment with GEM + CIS), the “Remissions / response rate” value turned out to be 33%. Also, in test [2] (setting [5]), the “Patients who live more than two years” value turned out to be 23%. In addition, the “Patients who lived or have lived longer than one year” value in test [2] (setting [5]) is recorded as 77%. Also, the “Number of patients living longer than one year after first treatment” value in test [2] (BVDU-treatment group) is reported as “Ten of 13”. Further, the “Number of patients living more than two years” value in test [2] (BVDU-treatment group) is “three”. The “Reduction of STAT3 protein content (densitometry)” value in the test with STAT3 is on record as “approximately two thirds”. Moreover, the DT-D activity result in the test on DT-diaphorase (DT-D) (BVDU alone) is listed as “increases the DT-D activity constantly, but in part only weakly”. The “DT-D activity relative to control cells or cells treated solely with DOX” value in the test on DT-diaphorase (DT-D) (cells treated with DOX±BVDU) is on record as “approximately threefold”. Further, the UPase expression entry in test [3] (AsPC-1 human pancreas carcinoma cell line) and in test [3] (BxPC-3 human pancreas carcinoma cell line) was “downregulates” throughout. The “Toxic effect on AH13r cells” value with AH13r sarcoma cells (BVDU given alone) is recorded as “no toxic effect”. Moreover, the “Cell growth in the recovery phase” value with AH13r sarcoma cells (after MMC+BVDU, cytostatic discontinued, cells continued to receive BVDU) is given as “greatly inhibited in their growth”. Moreover, in the test on JUN-D (BVDU given in the “recovery” after MMC), the “Inhibition of MMC induced JUN-D overexpression” value is listed as “complete inhibition”. Further, the “Reduction of JUN-D protein content (densitometry)” value with JUN-D (after DOX treatment, recovery phase: only BVDU given, no cytostatic) was “approximately one quarter; also recorded: a quarter”.
